Test results: a compilation of properties of binary mixtures (doi:10.1016/j.molliq.2017.09.038)

Assay: xn = mol fraction of the nth substance listed
Details: 101 kPa

CCCCCCCCCC[n+]1ccn(C)c1.[Br-] + O
viscosity (288 K, x1 = 0.0146): 3.39 mPa·s | viscosity (288 K, x1 = 0.0194): 4.6 mPa·s | viscosity (288 K, x1 = 0.0248): 6.77 mPa·s | viscosity (288 K, x1 = 0.031): 9.19 mPa·s | viscosity (293 K, x1 = 0.0146): 3.21 mPa·s | viscosity (293 K, x1 = 0.0194): 4.1 mPa·s | viscosity (293 K, x1 = 0.0248): 5.99 mPa·s | viscosity (293 K, x1 = 0.031): 8.61 mPa·s | viscosity (298 K, x1 = 0.0146): 2.77 mPa·s | viscosity (298 K, x1 = 0.0194): 3.72 mPa·s | viscosity (298 K, x1 = 0.0248): 5.72 mPa·s | viscosity (298 K, x1 = 0.031): 8.09 mPa·s | viscosity (303 K, x1 = 0.0248): 5.12 mPa·s | viscosity (303 K, x1 = 0.031): 7.92 mPa·s | viscosity (308 K, x1 = 0.0146): 1.94 mPa·s | viscosity (308 K, x1 = 0.0194): 2.83 mPa·s | viscosity (308 K, x1 = 0.0248): 4.22 mPa·s | viscosity (308 K, x1 = 0.031): 7.3 mPa·s
